Molecular target: Acetylcholinesterase (Homo sapiens, UniProt P22303)
Test: Inhibition of AChE in human Erythrocyte incubated for 20 mins by Ellman reagent based spectrophotometry
Format: cell-based

Sequence of Acetylcholinesterase (P22303 whole entry): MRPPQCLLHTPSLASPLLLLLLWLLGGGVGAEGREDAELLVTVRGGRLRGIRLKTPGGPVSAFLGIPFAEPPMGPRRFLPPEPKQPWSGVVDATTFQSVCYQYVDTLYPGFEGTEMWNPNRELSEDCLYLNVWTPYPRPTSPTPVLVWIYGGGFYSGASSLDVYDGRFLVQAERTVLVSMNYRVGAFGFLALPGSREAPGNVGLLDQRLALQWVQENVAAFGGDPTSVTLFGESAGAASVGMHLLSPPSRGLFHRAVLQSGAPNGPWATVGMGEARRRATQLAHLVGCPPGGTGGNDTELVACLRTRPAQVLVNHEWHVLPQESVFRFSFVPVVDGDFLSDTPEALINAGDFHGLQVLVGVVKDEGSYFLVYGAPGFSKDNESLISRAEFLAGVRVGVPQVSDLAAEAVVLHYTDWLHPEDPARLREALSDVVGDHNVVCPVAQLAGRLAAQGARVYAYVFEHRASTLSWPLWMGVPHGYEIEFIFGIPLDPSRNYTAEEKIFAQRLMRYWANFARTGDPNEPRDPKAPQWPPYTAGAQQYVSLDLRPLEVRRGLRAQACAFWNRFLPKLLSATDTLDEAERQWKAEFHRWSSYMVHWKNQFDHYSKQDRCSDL

With `C=C(C)[C@]1(O)CC[C@@]2(C)C3=Cc4c(cc(-c5cccnc5)oc4=O)O[C@]3(C)[C@@H](O)C[C@@H]2[C@@]12CCC(=O)OC2` as the compound, how does the IC50 read?
The IC50 was 13.9 µM.

Reference: ChEMBL document CHEMBL5120887, “Hybrid Diterpenic Meroterpenoids from an Endophytic Penicillium sp. Induced by Chemical Epigenetic Manipulation” (J Nat Prod, 2022)
